Reference: paper PMC11434080, “Acetylation of Oleanolic Acid Dimers as a Method of Synthesis of Powerful Cytotoxic Agents” (Molecules, 2024)
pIC50: −log10 of the molar value. “Also recorded” adds a separate entry of the source. Where two headings read alike, the source gives them in different places.

Assays:
[1] = test system: SKBR-3; assay: MTT assay, SKBR-3; assay type: cell-based, human; conditions: for SKBR-3 SI: Selectivity Index = IC50 HDF / IC50 SKBR-3; for pIC50: SKBR-3 human breast adenocarcinoma, value (SD)
Protocol: (§1) The cytotoxic activity of oleanolic acid (mother compound, 1, Figure 2) and its 14 derivatives (3a–3n, Figure 2) was tested in vitro using the standard MTT method based on viability assay, e.g., [44] against carcinoma cell lines: SKBR-3, SKOV-3, PC-3, U-87, and one normal cell line: HDF.
(§2) Human cancer cells: SKBR-3 and SKOV-3 were cultured in McCoy’s Modified Medium; PC-3 was cultured in an F-12K medium; U-87 was cultured in EMEM medium; HDF was cultured in Fibroblast Basal Medium. Each medium was supplemented with 10% fetal bovine serum, 1% L- glutamine, and 1% penicillin/streptomycin solution. The cell lines were kept in an incubator at 37 °C. All the cell lines and mediums were obtained from the American Type Culture Collection (ATCC) supplied by LGC-Standards (Lomianki, Poland).
(§3) The MTT assay was conducted as described earlier, e.g., [44]. In short, this method is based on the reaction between mitochondria enzymes (dehydrogenases) of tested cell lines and 3-(4,5-dimethylthiazol-2-yl)-2,5-diphenyltetrazolium bromide (MTT). The final product of this reaction gives violet formazan crystals. The number of live cells is proportional to the amount of formazan and is represented by the violet dye reagent. The details of the experiments are given in [44].

[2] = test system: SKOV-3; assay: MTT assay, SKOV-3; assay type: cell-based, human; conditions: for SKOV-3 SI: Selectivity Index = IC50 HDF / IC50 SKOV-3; for pIC50: SKOV-3 human ovarian cystadenocarcinoma, value (SD)
Protocol: as §1, §2, §3

[3] = test system: PC-3; assay: MTT assay, PC-3; assay type: cell-based, human; conditions: for pIC50: value (SD); for B SI: Selectivity Index = IC50 HDF / IC50 of PC-3
Protocol: as §1, §2, §3

[4] = test system: U-87; assay: MTT assay, U-87; assay type: cell-based, human; conditions: for U-87 SI: Selectivity Index = IC50 HDF / IC50 U-87; for pIC50: U-87 MG, MTT assay, U-87 human glioblastoma, value (SD)
Protocol: as §1, §2, §3

[5] = test system: HDF; assay: MTT assay, HDF normal cell line; assay type: cell-based; conditions: Homo sapiens, value (SD)
Protocol: as §1, §2, §3

[6] = CUPRAC antioxidant assay
Text: (§4) The results of the antioxidant activity of oleanolic acid (1) and Acetylated Oleanolic Acid Dimers (AcOADs) 3a–3n evaluated with CUPRAC and DPPH assays are given in Figure 3. The results are presented as % inhibition of the copper(II) ions and Trolox equivalent (blue bars) calculated from the standard curve, presented in the Supplementary Materials (Supplementary Materials S02, Figure S1) and as % inhibition of the DPPH radical and Trolox equivalent (pink bars), calculated from the standard curve presented in the Supplementary Materials (Supplementary Materials S02, Figure S2).
(§5) The CUPRAC reagent (7.5 mM ethanolic 96% neocuproine solution, 10 mM CuCl2 × H2O solution, and an ammonium acetate buffer of pH 7.0) and DPPH reagent (2,2-diphenyl-1-picrylhydrazyl 0.2 mM solution) were applied.
(§6) The DPPH assay relies on the ability of an antioxidant to donate a hydrogen atom or an electron to the stable DPPH radical, resulting in its reduction and subsequent color change. In contrast, the CUPRAC method measures the reducing power of a sample by quantifying its ability to convert the Cu-neocuproine reagent complex into the Cu(I) form. The results are presented as % inhibition of the copper(II) ions and Trolox equivalent (blue bars) calculated from the standard curve (Supplementary Materails S02, Figure S1) and as % inhibition of the DPPH radical and Trolox equivalent (pink bars), calculated from the standard curve (Supplementary Materials S02, Figure S2). The details of the experiments are given in [46].

[7] = DPPH antioxidant assay; conditions: for DPPH activity (in words): Figure 3
Text: as §4, §5, §6

[8] = test system: SKBR-3, SKOV-3, PC-3, and U-87 cancer cell lines; assay: MTT assay, four cancer cell lines taken together; assay type: cell-based, human; conditions: for Selectivity Index value: IC50 HDF / IC50 cancer cell line, across the four cancer lines; for pIC50: MTT, across SKBR-3, SKOV-3, PC-3, U-87; for level of cytotoxic activity relative to oleanolic acid (1): four cancer cell lines, times more active than oleanolic acid (1)
Protocol: as §1, §2, §3

[9] = MTT assay, PC-3 human prostate carcinoma, read-out: B IC50 (SD)

SMILES	SKBR-3 SI [1]	SKOV-3 SI [2]	pIC50 [3, 9]	B SI [3]	U-87 SI [4]	pIC50 [4]	pIC50 [5]	Selectivity Index value [8]	pIC50 ([1]; SK-BR-3, MTT assay)	pIC50 ([2]; SK-OV-3, MTT assay)	pIC50 ([8]; Homo sapiens)	also measured
CC1(C)CC[C@]2(C(=O)O)CC[C@]3(C)C(=CC[C@@H]4[C@@]5(C)CC[C@H](O)C(C)(C)[C@@H]5CC[C@]43C)[C@@H]2C1 [Compound 1, oleanolic acid]	1.27	1.32	4.73	1.33	1.37	4.74	4.60					CUPRAC antioxidant activity [6]: 0.05474 ± 0.00171 Trolox equivalents; DPPH antioxidant activity [7]: 0.01907 ± 0.0006506 Trolox equivalents
CC1(C)CCC2(C(=O)OCCCCCCCCCCCCOC(=O)C34CCC(C)(C)CC3C3=CCC5C6(C)CCC(O)C(C)(C)C6CCC5(C)C3(C)CC4)CCC3(C)C(=CCC4C5(C)CCC(O)C(C)(C)C5CCC43C)C2C1 (stereo not shown) [Compound 2n, reference compound]								higher than 1.00				
CC(=O)OC1CCC2(C)C(CCC3(C)C2CC=C2C4CC(C)(C)CCC4(C(=O)OCCCOC(=O)C45CCC(C)(C)CC4C4=CCC6C7(C)CCC(OC(C)=O)C(C)(C)C7CCC6(C)C4(C)CC5)CCC23C)C1(C)C (stereo not shown) [Compound 3c]	0.80	0.97	5.53	1.04	0.99	5.51	5.51	lower than 1	5.42	5.50	5.35 to 5.60	
CC(=O)OC1CCC2(C)C(CCC3(C)C2CC=C2C4CC(C)(C)CCC4(C(=O)OCCCCOC(=O)C45CCC(C)(C)CC4C4=CCC6C7(C)CCC(OC(C)=O)C(C)(C)C7CCC6(C)C4(C)CC5)CCC23C)C1(C)C (stereo not shown) [Compound 3d]	1.58	1.65	5.44	1.33	1.35	5.45	5.32	higher than 1.00	5.52	5.54	5.35 to 5.60	
CC(=O)OC1CCC2(C)C(CCC3(C)C2CC=C2C4CC(C)(C)CCC4(C(=O)OCC=CCOC(=O)C45CCC(C)(C)CC4C4=CCC6C7(C)CCC(OC(C)=O)C(C)(C)C7CCC6(C)C4(C)CC5)CCC23C)C1(C)C (stereo not shown) [Compound 3e]	2.17	2.26	5.47	1.99	1.91	5.46	5.18		5.51	5.53	5.35 to 5.60	CUPRAC activity (in words) ([6]; Figure 3): highest CUPRAC activity
CC(=O)OC1CCC2(C)C(CCC3(C)C2CC=C2C4CC(C)(C)CCC4(C(=O)OCC=CCOC(=O)C45CCC(C)(C)CC4C4=CCC6C7(C)CCC(OC(C)=O)C(C)(C)C7CCC6(C)C4(C)CC5)CCC23C)C1(C)C (stereo not shown) [Compound 3f]	0.57	0.58		0.60	0.59			about 0.5			5.15 to 5.33	pIC50 ([1]; Homo sapiens, SK-BR-3, MTT assay): 5.15; pIC50 ([2]; Homo sapiens, SK-OV-3, MTT assay): 5.16; pIC50 ([3]; Homo sapiens, PC-3, read-out: B IC50 (SD), MTT assay, PC-3 human prostate carcinoma): 5.17; pIC50 ([4]; Homo sapiens): 5.17; pIC50 ([5]; HDF): 5.40; level of cytotoxic activity relative to oleanolic acid (1) [8]: approximately 3 times
CC(=O)OC1CCC2(C)C(CCC3(C)C2CC=C2C4CC(C)(C)CCC4(C(=O)OCCCCCOC(=O)C45CCC(C)(C)CC4C4=CCC6C7(C)CCC(OC(C)=O)C(C)(C)C7CCC6(C)C4(C)CC5)CCC23C)C1(C)C (stereo not shown) [Compound 3g]	1.22	1.34	5.39	1.38	1.38	5.39	5.25	higher than 1.00	5.33	5.37	5.35 to 5.60	
CC(=O)OC1CCC2(C)C(CCC3(C)C2CC=C2C4CC(C)(C)CCC4(C(=O)OCCCCCCOC(=O)C45CCC(C)(C)CC4C4=CCC6C7(C)CCC(OC(C)=O)C(C)(C)C7CCC6(C)C4(C)CC5)CCC23C)C1(C)C (stereo not shown) [Compound 3h]	1.30	1.45	5.29	1.33	1.47	5.33	5.16	higher than 1.00	5.28	5.33	5.15 to 5.33	level of cytotoxic activity relative to oleanolic acid (1) [8]: approximately 3 times
CC(=O)OC1CCC2(C)C(CCC3(C)C2CC=C2C4CC(C)(C)CCC4(C(=O)OCCCCCCCOC(=O)C45CCC(C)(C)CC4C4=CCC6C7(C)CCC(OC(C)=O)C(C)(C)C7CCC6(C)C4(C)CC5)CCC23C)C1(C)C (stereo not shown) [Compound 3i]	0.92	0.96	5.72	0.97	0.93	5.70	5.73	lower than 1	5.70	5.71	~5.70	pIC50 [8]: ≥ 5.70
CC(=O)OC1CCC2(C)C(CCC3(C)C2CC=C2C4CC(C)(C)CCC4(C(=O)OCCCCCCCCOC(=O)C45CCC(C)(C)CC4C4=CCC6C7(C)CCC(OC(C)=O)C(C)(C)C7CCC6(C)C4(C)CC5)CCC23C)C1(C)C (stereo not shown) [Compound 3j]	2.31	2.28	5.57	2.32	2.32	5.56	5.19		5.56	5.55	5.35 to 5.60	DPPH activity (in words) [7]: higher antioxidant activity than OA
CC(=O)OC1CCC2(C)C(CCC3(C)C2CC=C2C4CC(C)(C)CCC4(C(=O)OCCCCCCCCCOC(=O)C45CCC(C)(C)CC4C4=CCC6C7(C)CCC(OC(C)=O)C(C)(C)C7CCC6(C)C4(C)CC5)CCC23C)C1(C)C (stereo not shown) [Compound 3k]	0.74	0.73	5.61	0.79	0.92	5.68	5.71		5.58	5.58	~5.70	DPPH activity (in words) [7]: higher antioxidant activity than OA
CC(=O)OC1CCC2(C)C(CCC3(C)C2CC=C2C4CC(C)(C)CCC4(C(=O)OCCCCCCCCCCOC(=O)C45CCC(C)(C)CC4C4=CCC6C7(C)CCC(OC(C)=O)C(C)(C)C7CCC6(C)C4(C)CC5)CCC23C)C1(C)C (stereo not shown) [Compound 3l]	0.61	0.61	5.23	0.61	0.66	5.26	5.44		5.23	5.23	5.15 to 5.33	level of cytotoxic activity relative to oleanolic acid (1) [8]: approximately 3 times; DPPH activity (in words) [7]: higher antioxidant activity than OA; also recorded: highest activity; also recorded: extremely high DPPH activity
